Source: article PMC9608995 (Pharmaceutics, 2022)
Marks after values point to notes of the source that are not given here.

Tests used:
H. nana [1] = assay: Intestinal histopathology (H&E) in H. nana-infected rats; type: in vivo, Hymenolepis nana
Description: (§1) The rats were males weighing 120–150 g and were free of parasitic infections. The rats were housed in a specific pathogen-free environment under standard conditions (22 ± 2 °C and 50–60% humidity) and were supplied food and water ad libitum. Rats of groups I-V were inoculated with shell-free eggs via the oral route using a stomach tube. Each animal received 3000 eggs in 0.1 mL of PBS pH 7.4. At day 16th post infection, a fecal examination was carried out and egg count per gram was detected using the McMaster technique. Group I was used as the infected non-treated control group. […] Animals of group VI were used as the non-infected non-treated control group. […] All procedures for agent administration, blood and tissue manipulation were in accordance with the Guide for the Care and Use of Laboratory Animals (8th edition) published in 2011 by the United States National Academy of Sciences.
Intestines of rats from different groups were gathered and instantly fixed for 24 h in neutrally buffered 10% formalin. Wet tissue sections were dehydrated through a series of alcohols and embedded in paraffin. Serial 4 μm thick cuts were made on all paraffin blocks by rotatory microtome. Thereafter, the cuts were fixed on glass slides and the paraffin was removed. […]

[2] = Oral pharmacokinetics in rats, LC-MS/MS, non-compartmental analysis; settings: male, Wistar, rat, 12.5 mg/kg
Description: Twelve male Wistar rats (120–150 g), procured from the animal facility of the Research Institute of Ophthalmology (Giza, Egypt), were arbitrarily allocated into two groups of six rats each. The polyacrylic cages, which the rats were lodged in, were maintained under controlled temperature (22 ± 2 °C) and relative humidity (55 ± 5%), in the presence of day and night cycled over 12 h intervals. The animals were provided with tap water ad libitum and standard forage till the night before dosing was commenced so that a 12 h starvation period was allowed. […] Next, centrifugation at 4000 rpm was directly applied to the tubes for 10 min in order to collect plasma. The isolated plasma samples were stored at −20 °C pending assay. The current study was reviewed and approved by our institutional Animal Ethics Committee of Beni-Suef University (protocol approval code: REC-A-PhBSU-20015).
A liquid chromatography–tandem mass spectrometry (LC–MS/MS) method was employed to assay the gathered plasma samples for PRZ. An Agilent eclipse C18 column (Agilent Technologies, Santa Clara, CA, USA) with the dimensions of 3.5 µm × 4.6 mm × 100 mm was employed for chromatographic separation utilizing the isocratic elution technique. The mobile phase, consisted of methanol and 0.1% formic acid (85:15, v/v), was delivered at a flow rate of 0.8 mL/min (split ratio 1/1). A sample injection volume of 10 µL was utilized. The temperatures of the column and autosampler oven were set to 40 °C and 15 °C, respectively. Electrospray ionization (ESI) in the positive mode was used for the operation of the mass spectrometer. Nitrogen was employed as the auxiliary and nebulizer gas. Source temperature, nebulizer gas, curtain gas and heater gas (i.e., the principal operation parameters) were adjusted at 500 °C, 60 psi, 25 psi and 60 psi, respectively. The ion spray voltage was tuned at 5500 V. Entrance potential, declustering potential, collision energy and collision exit potential (i.e., the compound parameters) were 10, 130, 15, 20 V for PRZ and 10, 91, 29, 12 V for diazepam as an internal standard (IS), respectively. Quantification was performed in the multiple reactions monitoring mode with m/z 313.18 → 203.10 for PRZ and m/z 285.31→193.00 for IS. Operation of the detector was at 1900 V. Analytical data processing was carried out through Analyst software (Version 1.4.2, Applied Biosystems, MDS SCIEX, Concord, ON, Canada).
A procedure based on liquid–liquid extraction was utilized. Briefly, to a plasma sample (100 µL), 10 µL of IS solution (50 ng/mL) was spiked and 1 mL of methyl-ter-butyl ether was added. The mixture was vortexed for 30 s to ensure homogeneity and then centrifugation at 3000 rpm was applied for 10 min. Into a conical glass tube, the transparent supernatant was transmitted and left at ambient temperature until the organic layer was entirely evaporated. The residues resulting from the evaporation process were then dissolved in the mobile phase and 10 µL of the solution was subsequently injected through the autosampler.
The non-compartmental pharmacokinetic analysis function built into the Excel Add-In software, PK Solver, was employed to analyze the time course of the PRZ concentration in rat plasma for estimation of pharmacokinetic parameters. The software assesses the maximal drug concentration (Cmax, ng/mL) and elapsed time to attain such concentration (Tmax, h) directly from the plasma concentration–time curve. The software adopts the trapezoidal rule method for quantifying the area under the curve (AUC) from 0 to t (AUC0–t, ng h/mL) and from 0 to infinity (AUC0–∞, ng h/mL).

H. nana [3] = assay: Fecal egg count and egg reduction in H. nana-infected rats; type: in vivo, Hymenolepis nana; settings: for Percentage reduction of egg count: 1st and 3rd day after treatment; for Mean egg count, 1st day after treatment / Mean egg count, 3rd day after treatment: fecal egg count per gram (EPG), n = 10
From the text: (§2) Mature H. nana worms were gathered from naturally-infected Mus musculus and kept in outbred rats. Thereafter, collection of the eggs was executed from infected rats that were euthanized on day 16th post infection. Infectious shell-free eggs were produced from the gravid segments of adult worms via agitating the egg suspension with 3 mm-diameter glass beads shortly prior to use.
as §1
Fecal egg count per gram (EPG) was estimated in the different groups on day 21 and 23 of the experiment. Fecal egg reduction percentage was calculated based on the formula [34]: Fecal egg reduction percentage=EPG before treatment−EPG post treatment/EPG before treatment×100

[4] = cited from earlier work
H. nana eggs = assay: In vitro ovicidal activity, Fuchsin vital stain; type: cell-based, Hymenolepis nana; settings: PRZ-PMMs finding at 50 µg/mL
Description: Three tubes for each concentration of each formulation were prepared. On clean glass slides, 100 µL of eggs of the different treatments were added and stained with 20 µL of freshly prepared Fuchsin for 10 min and examined under a light microscope.

[5] = cited from earlier work; remark: listed apart in the source
H. nana [6] = assay: Worm burden and worm reduction in H. nana-infected rats; type: in vivo, Hymenolepis nana; settings: for Percentage reduction of worm count: rats; for Worm count: worm numbers per rat, 23rd day, n = 10
From the text: as §2, §1
On the 23rd day of the experiment, the rats were euthanized and the small intestines were removed. The small intestines were longitudinally dissected and the worm burdens were assessed.

[7] = In vitro release, membrane diffusion procedure, with kinetic model fitting; type: physicochemical; settings: PBS pH 7.4 with 0.2% w/v SLS, 37 °C
Description: In triplicate, the release behavior of PRZ from the assembled PMMs was investigated utilizing a type 1, SR 8 Plus USP dissolution tester apparatus (Hanson Research, Chatsworth, Los Angeles, CA, USA) employing the membrane diffusion procedure. […] For establishing the sink condition, 70 mL of phosphate-buffered saline (PBS) comprising 0.2% w/v sodium lauryl sulfate (SLS) was used as the release milieu after adjusting the pH to 7.4 and setting the temperature to 37 ± 0.5 °C [27]. After fixing the filled cylinders to the USP dissolution apparatus shafts, a revolving speed of 50 rpm was applied. About 1-mL aliquots were intermittently pulled out after 0.5, 1, 2, 4, 6, 8, 12 and lastly after 24 h as prescheduled time intervals. In order to maintain the volume of the dissolution milieu at a fixed level, each aspiration was recompensed with a fresh milieu. After applying the appropriate dilution, a spectrophotometer set at λmax 263 was used to quantify PRZ in the collected samples. Afterwards, PRZ accumulative % released, as mean (±SD) values, was graphed versus time. An analogous experimentation was conducted on 2 mL of 1.5 mg/mL free PRZ aqueous suspension for comparative purposes. […] Amplification of the coefficient of determination (R^2) made the grounds for picking the most appropriate arithmetic model.

[8] = single oral dose 25 mg/kg, 25 mg/kg
[9] = single oral dose 25 mg/kg, listed as crude PRZ, 25 mg/kg

For `O=C(C1CCCCC1)N1CC(=O)N2CCc3ccccc3C2C1` (stereo not shown) [Crude PRZ, praziquantel], the “Intestinal histopathology, parasitic sections” value (H. nana [1]; 12.5 mg/kg oral) was “submucosal granulomatous reaction in association with the detected parasitic sections”, the “Intestinal histopathology, parasitic sections” value (H. nana [1]; 25 mg/kg oral) was “no parasitic sections” and the half-life ([2]; in vivo) was 1.11 ± 0.04 h. The AUC(0-inf) ([2]; po) was 566 ± 102 ng·h/mL, the AUC(0-t) ([2]; po) was 390 ± 95.3 ng·h/mL and the Cmax ([2]; po) was 290 ± 28.5 ng/mL. For the same compound, the MRT ([2]; po) was 3.05 ± 0.46 h, the Tmax ([2]; po) was 0.24 ± 0.03 h and the k el ([2]; po) was 0.000173 s⁻¹. The “Percentage reduction of egg count” value (H. nana [3]; single oral dose 12.5 mg/kg) was 90.6–91.1%, the “Reduction of eggs output in feces” value (H. nana [3]; single oral dose 12.5 mg/kg, 21st day) was 90.6% and the “Reduction of eggs output in feces” value (H. nana [3]; single oral dose 12.5 mg/kg, 23rd day) was 91.1%. For the same compound, the “Mean egg count, 1st day after treatment” value (H. nana [3]; single oral dose 12.5 mg/kg) was 1033.20 ± 40.83 ^a,b,d,e, the “Mean egg count, 3rd day after treatment” value (H. nana [3]; single oral dose 12.5 mg/kg) was 966.60 ± 40.83 ^a,b,d,e and the “Percentage reduction of egg count” value (H. nana [3]; [8]) was 100%. For the same compound, the “Percentage reduction of egg count” value (H. nana [3]; [9]) was 100%, the “Mean egg count, 1st day after treatment” value (H. nana [3]; single oral dose 25 mg/kg) was 0.00 ± 0.00 ^a,c and the “Mean egg count, 3rd day after treatment” value (H. nana [3]; single oral dose 25 mg/kg) was 0.00 ± 0.00 ^a,c. For the same compound, the Intrinsic hydrosolubility [4] was ~ 0.3 mg/mL, the “Morphological changes of the eggs” value (H. nana eggs) was “mild shell deformities and embryo damage” and the Terminal half-life [5] was 1 to 1.5 h. For the same compound, the “Percentage reduction of worm count” value (H. nana [6]; single oral dose 12.5 mg/kg, 12.5 mg/kg) was 73.3%, the “Percentage reduction of worm count” value (H. nana [6]; single oral dose 12.5 mg/kg, listed as crude PRZ, 12.5 mg/kg) was 73.3% and the “Percentage reduction of worm count” value (H. nana [6]; [8]) was 100%. For the same compound, the “Percentage reduction of worm count” value (H. nana [6]; [9]) was 100%, the Worm count (H. nana [6]; single oral dose 12.5 mg/kg) was 16.60 ± 1.14 ^a,b,d,e and the Worm count (H. nana [6]; single oral dose 25 mg/kg) was 0.00 ± 0.00 ^a. The “Accumulative % released at 1 h” value [7] was 98.81 ± 5.94%.
